Assay results published in paper PMC4890260, “Engineering Bacillus licheniformis for the production of meso-2,3-butanediol” (Biotechnology for Biofuels, 2016).

Assays:
[1] = molecular target: T1, WX-02 GDH (Bacillus licheniformis, UniProt X5FDW5); assay: NADH formation at […] nm; assay type: biochemical; conditions: 4 mM NAD+; 50 mM substrate; Z buffer pH 7.0; 37 °C; 1 mM MgSO4, 10 mM DTT
T1 construct: primers encode native N-term MSKSVK (MG added before) and C-term AESYHD
T1 sequence (X5FDW5 1-367): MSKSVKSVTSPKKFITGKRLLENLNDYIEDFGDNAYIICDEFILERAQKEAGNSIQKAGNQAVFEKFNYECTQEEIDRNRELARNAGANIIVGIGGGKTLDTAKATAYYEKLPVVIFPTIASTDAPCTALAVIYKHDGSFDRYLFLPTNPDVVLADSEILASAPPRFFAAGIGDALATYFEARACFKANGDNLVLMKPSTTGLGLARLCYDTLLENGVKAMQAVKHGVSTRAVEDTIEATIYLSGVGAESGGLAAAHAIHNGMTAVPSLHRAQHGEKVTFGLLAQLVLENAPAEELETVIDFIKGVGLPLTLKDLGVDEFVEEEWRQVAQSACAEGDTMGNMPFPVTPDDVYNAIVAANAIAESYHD

[2] = molecular target: T1, WX-02 GDH; assay: NADH oxidation at […] nm; assay type: biochemical; conditions: 0.2 mM NADH; 50 mM substrate; Z buffer pH 7.0; 37 °C; 1 mM MgSO4, 10 mM DTT

Structure (SMILES) | NADH formation at 340 nm [1] | NADH oxidation at 340 nm [2]
C[C@@H](O)[C@@H](C)O [D-2,3-BD] | this enzyme exhibited the highest activity towards D-2,3-BD among various substrates | 
CC(=O)[C@@H](C)O [D-AC] |  | WX-02 GDH accepted D-AC, D-2,3-BD, meso-2,3-BD, and glycerol as substrates
